US7666619B2, “Compounds and methods for regulating bacterial growth and pathogenesis” (Princeton University, priority 2000, dated 2010)

Key:
[1] = tested on: SdiA; assay: Effect of autoinducer on SdiA regulated gene expression (rck::MudJ fusion, β-galactosidase); format: cell-based; conditions: AI-2 from E. coli or S. typhimurium, 0.4 M NaCl osmotic shock fluids at 10% (v/v)
From the text: It was possible that the AI-2 autoinducer that we have been characterizing in S. typhimurium and E. coli acted through SdiA. […] In E. coli, we assayed an ftsQ1p2p-lacZ reporter, and in S. typhimurium we assayed an rck::MudJ fusion in both an sdiA^+ and sdiA^− background. We tested the effects of addition of LB, 0.4 M NaCl, 0.4 M NaCl osmotic shock fluids containing AI-2 activity from S. typhimurium LT2, E. coli O157, and 0.4 M NaCl osmotic shock fluid from E. coli DH5α.
For ftsQ regulation in E. coli, the plasmids pMS207 and pMS209 were transformed into E. coli strain MC4100 (Silhavy et al., 1984, supra), and the transformants were grown overnight in LB containing 100 mg/L ampicillin at 30° C. with aeration. For rck regulation, S. typhimurium strains BA1105 (rck::MudJ) and BA1305 (rck::MudJ sdiA) were grown overnight in LB containing 100 mg/L kanamycin at 30° C. with aeration. The overnight cultures were diluted 20-fold into fresh medium and grown for an additional 4.5 h. At this time, each culture was divided into five identical aliquots and 10% (v/v) of one of the following was added to each aliquot: LB, 0.4M NaCl, 0.4M osmotic shock fluids from S. typhimurium LT2, E. coli O157 or E. coli strain DH5α (negative control). The osmotic shock fluids were prepared as described above, following pre-growth of the S. typhimurium LT2 and E. coli in LB containing 0.5% glucose for 6 h. […]

[2] = tested on: MM32 indicator strain (LuxS−, LuxN−) of V. harveyi; assay: MM32 bioluminescence assay; format: cell-based, Vibrio harveyi; conditions: various doses, 6-hour incubation
Method: The MM32 indicator strain (LuxS−, LuxN−) of V. harveyi was incubated with various doses of AI-2 and the bioluminescence signal measured at various time points during a 6-hour incubation.
Exogenous synthetic autoinducer-2 was added at the outset of the assay at a final concentration of 25 μg/ml. QXP-048 was added at the outset of the assay at a final concentration of 25 μg/ml. […] Exogeneous synthetic autoinducer-2 was added at the outset of the assay to a final concentration of 25 μg/ml. QXP-048 was added at the outset of the assay at a final concentration of 25 μg/ml.
The invention provides a luxN− and luxS− strain of V. harveyi, designated MM32, for identifying inhibitors of the quorum-sensing pathway. […] Further, since MM32 cannot produce AI-2, addition of exogenous AI-2 or its analogs allows rapid identification of inhibitors of AI-2.

[3] = Characterization of AI-2 activity: acid, base and heat stability; format: physicochemical
[4] = tested on: Pseudomonas aeruginosa (ATCC 27853); assay: Microtiter crystal violet biofilm formation assay; format: cell-based; conditions: AB media with glucose; pH-dependent
Method: (§1) Biofilm formation was measured using a microtiter-based assay. Free-swimming (planktonic) bacteria were cultured in AB or LB media supplemented with glucose in 96 well microtiter dishes. Biofilms typically formed along the walls of the wells at the interface of the liquid and air phase. At the end of the incubation, aliquots of a crystal violet solution (stock 0.1%) were added to the wells to stain both the adherent and the non-adherent cells. The wells were then washed with deionized water to remove non-adherent cells, and the bound crystal violet solubilized with 200 microliters of water. Absorbance reading at 600 nm (A600) were used to quantitate the amount of crystal violet dye that had adhered to the biofilms. When indicated, synthetic AI-2 was added to the wells at the beginning of the cultures.
The effects of AI-2 on biofilm formation were also evaluated in Pseudomonas aeruginosa (ATCC 27853)(FIG. 27). Biofilm formation by this organism is of particular interest because of the association of Pseudomonas aeruginosa biofilms with decreased lung capacity in subjects with cystic fibrosis.

[5] = tested on: V. harveyi strains MM32, BB120, BB170; assay: Microtiter crystal violet biofilm formation assay; format: cell-based, Vibrio harveyi
Method: as §1
Various amounts of synthetic AI-2 were added to the initial free-swimming bacterial cultures in LB media supplemented with glucose, and biofilm formation measured at the end of the incubation.

Question: Which results are given for `CC1=C(O)C(=O)CO1` [AI-2, 4-hydroxy-5-methyl-2h-furan-3-one]?
Answer: change in β-galactosidase production [1]: No change; bioluminescence signal [2]: induction of bioluminescence; stability of activity to acid [3]: acid-stable; stability of activity to base [3]: base-labile; temperature of heating withstood by the activity ([3]; but not 100° C.): about 80 °C; biofilm formation [4]: dose-dependent increase in the level of biofilm formation; biofilm formation ([5]; MM32 strain, low doses, LB media with glucose): block biofilm formation; biofilm formation ([5]; higher concentrations, all V. harveyi strains tested): stimulated biofilm formation; biofilm formation ([5]; indicator strain BB170, low doses, LB media with glucose): increases the extent of biofilm that forms; biofilm production after addition to the medium ([5]; null mutant (AI-1−/AI-2−) V. harveyi): allows (AI-1−/AI-2−) V. harveyi to produce biofilm; biofilm formation ([5]; wild-type strain BB120, low doses, LB media with glucose): increases the extent of biofilm that forms
